The subject of one data set is MCF7 (mammary carcinoma). Description: Tumor growth inhibitory activity (cytotoxicity), SRB method of Skehan et al, MCF7. The class given is cell-based, human. To be noted: Homo sapiens, read-out: IC50 MCF7 (breast). The source says: (§1) The results were obtained according to the methods of Skehan et al (See Skehan et al., J. Nat. Cancer Inst., 82, 1107 (1990)), as more fully described in the Examples. The resistance factor (R/S) shown in the table is a measure of the degree of resistance of a cell line against a taxoid compound. The resistance factor is a ratio of the cytoxicity of a taxoid compound against a drug-resistant cell line (R) as compared to its cytoxicity against a drug-sensitive cell line (S).
(§2) In the tables, lower numbers indicate higher potency (or greater activity). Paclitaxel was used as the standard for comparison. The data represent the mean values of at least three separate experiments.
(§3) Assessment of cell growth inhibition was determined according to the methods of Skehan et al (See Skehan et al., J. Nat. Cancer Inst., 82, 1107 (1990)). Briefly, cells were plated between 400 and 1200 cells/well in 96 well plates and incubated at 37° C. for 15-18 h prior to drug addition to allow attachment of cells. Compounds tested were solubilized in 100% DMSO and further diluted in RPMI-1640 containing 10 mM HEPES. Each cell line was treated with 10 concentrations of compounds (5 log range). After a 72 h incubation, 100 μL of ice-cold 50% TCA was added to each well and incubated for 1 h at 4° C. Plates were then washed 5 times with tap water to remove TCA, low-molecular-weight metabolites and serum proteins. Sulforhodamine B (SRB) (0.4%, 50 μL) was added to each well. Following a 5 minute incubation at room temperature, plates were rinsed 5 times with 0.1% acetic acid and air dried. Bound dye was solubilized with 10 mM Tris Base (pH 10.5) for 5 min on a gyratory shaker. Optical density was measured at 570 nm.
(§4) Data were fit with the Sigmoid-Emax concentration-effect model with non-linear regression, weighted by the reciprocal of the square of the predicted response (see Holford, N. H. G.; Scheiner, L. B., “Understanding the dose-effect relationship: Clinical applications of pharmaco-kinetic-pharmacodynamic models,” Clin. Pharmacokin., 6, 429-453 (1981)). The fitting software was developed by the Roswell Park Cancer Institute with Microsoft FORTRAN, and uses the Marquardt algorithm (see Marquardt, D. W., “An algorithm for least squares estimation of nonlinear parameters,” J. Soc. Ind. Appl. Math., 11, 431-441 (1963)) as adopted by Nash for the non-linear regression (see Nash, J. C., “Compact numerical method for computers: Linear algebra and function minimization,” John Wiley & Sons, New York, 1979).
Background: In SRB staining, fixed cells bind dye roughly in proportion to their protein.

Data set [1] concerns MCF7-R (mammary carcinoma cells 250-fold resistant to paclitaxel). Description: Tumor growth inhibitory activity (cytotoxicity), SRB method of Skehan et al, MCF7-R. Format: cell-based, human. The note with it: for IC50: Homo sapiens, MCF7R, read-out: IC50 MCF7-R (breast); for R/S (resistance factor): ratio of cytotoxicity against drug-resistant MCF7-R (R) to drug-sensitive MCF7 (S).
Source text: as §1, §2, §3, §4

The mark [2] stands for this setting: MCF7, 72 h drug exposure, SRB, mean of at least three separate experiments.
Where [3] appears, read: drug-resistant cell line, 72 h drug exposure, SRB, mean of at least three separate experiments.

Where two headings read alike, the source gives them in different places.

Regarding `CCC(=O)O[C@H]1C(=O)[C@@]2(C)C([C@H](OC(=O)c3ccccc3)[C@]3(O)C[C@H](OC(=O)[C@H](O)[C@H](C=C(F)F)NC(=O)OC(C)(C)C)C(C)=C1C3(C)C)[C@]1(OC(C)=O)CO[C@@H]1C[C@@H]2O` (stereo partly shown) [SB-T-12853, 3′-Dephenyl-3′-(2,2-difluorovinyl)-10-propanoyl-docetaxel], the melting point (usually the temperature, or range, at which the solid turns liquid) was 175 to 181 °C. The IC50 – broadly, the concentration that gives 50% inhibition – in the data set on MCF7 (mammary carcinoma) (setting [2]) was 0.12 nM. Besides, the IC50 in data set [1] (setting [3]) worked out at 1.2 nM. Besides, the “R/S (resistance factor)” value in data set [1] was 10.

Regarding `COC(=O)O[C@H]1C(=O)[C@@]2(C)C([C@H](OC(=O)c3ccccc3)[C@]3(O)C[C@H](OC(=O)[C@H](O)[C@H](C=C(F)F)NC(=O)OC(C)(C)C)C(C)=C1C3(C)C)[C@]1(OC(C)=O)CO[C@@H]1C[C@@H]2O` (stereo partly shown) [SB-T-12855, 3′-Dephenyl-3′-(2,2-difluorovinyl)-10-methoxycarbonyldocetaxel], the melting point lay in the range of 144 to 148 °C. Further, in the data set on MCF7 (mammary carcinoma) (setting [2]), the IC50 stood at 0.14 nM. Also, the IC50 in data set [1] (setting [3]) was 1.29 nM. In addition, the “R/S (resistance factor)” value in data set [1] is 9.2.

The compound `CC(=O)O[C@H]1C(=O)[C@@]2(C)C([C@H](OC(=O)c3ccccc3)[C@]3(O)C[C@H](OC(=O)[C@H](O)[C@H](C=C(F)F)NC(=O)OC(C)(C)C)C(C)=C1C3(C)C)[C@]1(OC(C)=O)CO[C@@H]1C[C@@H]2O` (stereo partly shown) [SB-T-12851, 10-Acetyl-3′-dephenyl-3′-(2,2-difluorovinyl)docetaxel] yielded a melting point of 155 to 160 °C. Further, in the data set with MCF7 (mammary carcinoma) (setting [2]), the 50% inhibitory concentration (IC50) came to 0.099 nM. The IC50 in data set [1] (setting [3]) is 0.95 nM. Moreover, the “R/S (resistance factor)” value in data set [1] is listed as 9.6.

The compound `CC(=O)O[C@@]12CO[C@@H]1C[C@H](O)[C@@]1(C)C(=O)[C@H](OC(=O)N(C)C)C3=C(C)[C@@H](OC(=O)[C@H](O)[C@H](C=C(F)F)NC(=O)OC(C)(C)C)C[C@@](O)([C@@H](OC(=O)c4ccccc4)C12)C3(C)C` (stereo partly shown) [SB-T-12854, 3′-Dephenyl-3′-(2,2-difluorovinyl)-10-dimethylcarbamoyldocetaxel] showed a melting point of 166 to 170 °C. Also, in the data set on MCF7 (mammary carcinoma) (MCF7, 72 h), the half-inhibitory concentration (IC50) was 0.13 nM. Moreover, the IC50 in data set [1] (72 h) turned out to be 4.27 nM. Further, the “R/S (resistance factor)” value in data set [1] was 33.

`CC(=O)O[C@H]1C(=O)[C@@]2(C)C([C@H](OC(=O)c3cccc(F)c3)[C@]3(O)C[C@H](OC(=O)[C@H](O)[C@H](C=C(F)F)NC(=O)OC(C)(C)C)C(C)=C1C3(C)C)[C@]1(OC(C)=O)CO[C@@H]1C[C@@H]2O` (stereo partly shown) [SB-T-12851-2, 3′-Dephenyl-3′-(2,2-difluorovinyl)-2-debenzoyl-2-(3-fluorobenzoyl)-10-acetyldocetaxel]: the IC50 with MCF7 (mammary carcinoma) (setting [2]) was 0.13 nM; in data set [1] (setting [3]), 1.53 nM. Moreover, the “R/S (resistance factor)” value in data set [1] turned out to be 12.

As to `CCC(=O)O[C@H]1C(=O)[C@@]2(C)C([C@H](OC(=O)c3cccc(Cl)c3)[C@]3(O)C[C@H](OC(=O)[C@H](O)[C@H](C=C(F)F)NC(=O)OC(C)(C)C)C(C)=C1C3(C)C)[C@]1(OC(C)=O)CO[C@@H]1C[C@@H]2O` (stereo partly shown) [SB-T-12853-4, 3′-Dephenyl-3′-(2,2-difluorovinyl)-2-debenzoyl-2-(3-chlorobenzoyl)-10-propanoyldocetaxel], the IC50 is 0.13 nM in the data set on MCF7 (mammary carcinoma) (setting [2]) and 0.45 nM in data set [1] (setting [3]). For the same compound, the “R/S (resistance factor)” value in data set [1] is given as 3.5.

As for `CCC(=O)O[C@H]1C(=O)[C@@]2(C)C([C@H](OC(=O)c3cccc(OC)c3)[C@]3(O)C[C@H](OC(=O)[C@H](O)[C@H](C=C(F)F)NC(=O)OC(C)(C)C)C(C)=C1C3(C)C)[C@]1(OC(C)=O)CO[C@@H]1C[C@@H]2O` (stereo partly shown) [SB-T-12853-1, 3′-Dephenyl-3′-(2,2-difluorovinyl)-2-debenzoyl-2-(3-methoxybenzoyl)-10-propanoyldocetaxel], the IC50 in the data set with MCF7 (mammary carcinoma) (setting [2]) is 0.34 nM; in data set [1] (setting [3]), 0.57 nM. The “R/S (resistance factor)” value in data set [1] is 1.7.

Consider `CC(=O)O[C@@]12CO[C@@H]1C[C@H](O)[C@@]1(C)C(=O)[C@H](OC(=O)N(C)C)C3=C(C)[C@@H](OC(=O)[C@H](O)[C@H](C=C(F)F)NC(=O)OC(C)(C)C)C[C@@](O)([C@@H](OC(=O)c4cccc(F)c4)C12)C3(C)C` (stereo partly shown) [SB-T-12854-2, 3′-Dephenyl-3′-(2,2-difluorovinyl)-2-debenzoyl-2-(3-fluorobenzoyl)-10-dimethylcarbamoyldocetaxel], for which the IC50 was 0.17 nM with MCF7 (mammary carcinoma) (MCF7, 72 h) and 2.25 nM in data set [1] (72 h). The “R/S (resistance factor)” value in data set [1] came out at 9.4.

With `CCC(=O)O[C@H]1C(=O)[C@@]2(C)C([C@H](OC(=O)c3cccc(N=[N+]=[N-])c3)[C@]3(O)C[C@H](OC(=O)[C@H](O)[C@H](C=C(F)F)NC(=O)OC(C)(C)C)C(C)=C1C3(C)C)[C@]1(OC(C)=O)CO[C@@H]1C[C@@H]2O` (stereo partly shown) [SB-T-12853-3, 3′-Dephenyl-3′-(2,2-difluorovinyl)-2-debenzoyl-2-(3-azidobenzoyl)-10-propanoyldocetaxel], the values for the IC50 (with MCF7 (mammary carcinoma) (setting [2]); in data set [1] (setting [3])) were 0.13 nM and 0.38 nM, respectively. The “R/S (resistance factor)” value in data set [1] was 2.9.

In the case of `CC(=O)O[C@H]1C(=O)[C@@]2(C)C([C@H](OC(=O)c3cccc(Cl)c3)[C@]3(O)C[C@H](OC(=O)[C@H](O)[C@H](C=C(F)F)NC(=O)OC(C)(C)C)C(C)=C1C3(C)C)[C@]1(OC(C)=O)CO[C@@H]1C[C@@H]2O` (stereo partly shown) [SB-T-12851-4, 3′-Dephenyl-3′-(2,2-difluorovinyl)-2-debenzoyl-2-(3-chlorobenzoyl)-10-acetyldocetaxel], the values for the IC50 (with MCF7 (mammary carcinoma) (setting [2]); in data set [1] (setting [3])) were 0.13 nM and 0.7 nM, respectively. In addition, in data set [1], the “R/S (resistance factor)” value is given as 5.4.

For `CC(=O)O[C@H]1C(=O)[C@@]2(C)[C@H]([C@H](OC(=O)c3ccccc3)[C@]3(O)C[C@H](OC(=O)[C@H](O)[C@@H](NC(=O)c4ccccc4)c4ccccc4)C(C)=C1C3(C)C)[C@]1(OC(C)=O)CO[C@@H]1C[C@@H]2O` [Paclitaxel, paclitaxel, reference compound], the IC50 in the data set on MCF7 (mammary carcinoma) (setting [2]) amounted to 1.2 nM; in data set [1] (setting [3]) it was 300 nM. Besides, the “R/S (resistance factor)” value in data set [1] stood at 250.

The values above are taken from US7981926B2, “Fluorotaxoids” (Research Foundation of State University of New York, priority 2005, dated 2011).
